Experimental data from patent US20260240202A1, “MINERAL PROTEINATES FOR USE IN ANIMAL FEEDS, AND METHODS OF MAKING THEREOF” (Cargill, Incorporated, priority 2023, published 2026).
Marks after values point to notes of the source that are not given here.

Test: Chick Zn bioavailability trial: performance and tibia bone measures
Type: in vivo, New Hampshire×Columbian male and female chicks
Details: for Dry Bone Wt (mg/tibia) / Bone Ash (%) / Bone Ash Wt (mg/tibia) / Tibia Ash Zn Conc. (μg/g of ash): 14 d; for Dry Bone Wt (mg/tibia): right tibia
Procedure: New Hampshire×Columbian male and female chicks from the University of Illinois Poultry Field Laboratory were fed a nutritionally complete corn-soybean meal diet for the first 3 days post-hatching. The chicks were then switched to a Zn-deficient soy concentrate basal diet and fed this diet until 1600 h on D 7 post-hatching. After being subjected to overnight feed withdrawal, chicks were weighed, wing banded and allotted to pens so that each pen has a similar initial weight. Treatment additions were made at the expense of cornstarch. The trial diet can be seen in Table 6.
Five replicate groups of four chicks were fed one of 10 diets for 14 d (Day 8-22 post-hatch). Chicks were maintained in heated stainless-steel batteries and exposed to constant fluorescent light. The dietary treatments are listed below: • 1. Basal soy concentrate diet-Zn deficient (13-14 mg/kg Zn) • 2. As 1+3 mg/kg Zn from feed grade ZnSO4·7H2O • 3. As 1+6 mg/kg Zn from feed grade ZnSO4·7H2O • 4. As 1+9 mg/kg Zn from feed grade ZnSO4·7H2O • 5. As 1+3 mg/kg Zn from Organic Zn prototype MinPro-E75 • 6. As 1+6 mg/kg Zn from Organic Zn prototype MinPro-E75 • 7. As 1+9 mg/kg Zn from Organic Zn prototype MinPro-E75 • 8. As 1+3 mg/kg Zn from Organic Zn prototype MinPro-HSW • 9. As 1+6 mg/kg Zn from Organic Zn prototype MinPro-HSW • 10. As 1+9 mg/kg Zn from Organic Zn prototype MinPro-HSW
Chicks were weighed at the beginning and the end of the trial and weight gain calculated by subtracting the starting weight from the ending weight. Feed intakes were calculated via subtracting the feed refusals from the feed provided, with Zn intakes calculated based on Zn concentration in the diet and total feed consumed. Feed conversions were determined by using the feed consumed divided by weight gained.
Upon termination of the experiment, chicks and feeders were weighed and chicks were euthanized with CO2 gas. The right tibia from each chick was removed and pooled by replicate pen. The tibia was then autoclaved and cleaned to remove all adhering tissue, dried at 110° C. for 24 h, and then dry ashed in a muffle furnace. The ash was analyzed for Zn at the University of Missouri. Bioavailability of Zn was then determined by the slope-ratio method using multiple regression analysis. Weight gain, tibia Zn concentration and total tibia Zn were regressed on supplemental Zn intake from the Zn sources and the bioavailability of the Zn in the Zn-protein sources was calculated relative to the Zn in ZnSO4·7H2O.

Tibia Ash Zn Conc. (μg/g of ash) (3 mg/kg supplemental Zn): 79.16^ef μg/g of ash
Tibia Ash Zn Conc. (μg/g of ash) (6 mg/kg supplemental Zn): 88.98^cd μg/g of ash
Tibia Ash Zn Conc. (μg/g of ash) (9 mg/kg supplemental Zn): 101.2^ab μg/g of ash
Structure (SMILES): O.O.O.O.O.O.O.O=S(=O)([O-])[O-].[Zn+2] [ZnSO4, ZnSO4·7H2O]
Dry Bone Wt (mg/tibia) (3 mg/kg supplemental Zn in Zn-deficient basal diet): 1012^e mg/tibia
Bone Ash (%) (3 mg/kg supplemental Zn): 42.8^bcd %
Bone Ash Wt (mg/tibia) (3 mg/kg supplemental Zn): 433^de mg/tibia
Dry Bone Wt (mg/tibia) (6 mg/kg supplemental Zn in Zn-deficient basal diet): 1104^bdc mg/tibia
Bone Ash (%) (6 mg/kg supplemental Zn): 43.4^abcd %
Bone Ash Wt (mg/tibia) (6 mg/kg supplemental Zn): 478^bc mg/tibia
Dry Bone Wt (mg/tibia) (9 mg/kg supplemental Zn in Zn-deficient basal diet): 1176^ab mg/tibia
Bone Ash (%) (9 mg/kg supplemental Zn): 43.8^ab %
Bone Ash Wt (mg/tibia) (9 mg/kg supplemental Zn): 515^ab mg/tibia
Feed efficiency (Zinc inclusion at 3 mg/kg and 6 mg/kg): approximately 560 g/kg of feed consumed
